Source: patent US20160122406A1, “ANALOGS OF PITUITARY ADENYLATE CYCLASE-ACTIVATING POLYPEPTIDE (PACAP) AND METHODS FOR THEIR USE” (THE ADMINISTRATORS OF THE TULANE EDUCATIONAL FUND, priority 2013, published 2016)
“Also recorded” adds a separate entry of the source. Square brackets hold non-standard residues; d marks the D form. * marks the point of attachment. Iac = imidazole-4-acrylic acid, O=C(/C=C/c1c[nH]cn1)*; Acetyl(2-(4-imidazolyl)) = O=C(Cc1c[nH]cn1)*

System: Male Sprague-Dawley rats
Test: Arterial blood pressure and heart rate after intravenous injection in anesthetized rats
Format: in vivo
Conditions: 10 micrograms i.v.; for change in arterial blood pressure / change in arterial pulse pressure: isoflurane-anesthetized rats; for heart rate before intravenous injection: the 'from' value; for heart rate after intravenous injection: the 'to' value
From the text: FIG. 9 is a graph showing the changes in arterial blood pressure caused by [Iaa^1]PACAP38, [Iaa^1,D-Ser^2]PACAP38, [Iaa^1,Ala^22]PACAP38, and [Iaa^1,D-Ser^2,Ala^22]PACAP38. Male Sprague-Dawley rats (300-325 g) were anesthetized with 5% isoflurane for induction and then intubated. The rats were then ventilated (Hallowell EMC) with 100% O2 and 1-2% isoflurane. A PE-50 cannula was then placed in the femoral artery and connected to a pressure transducer. The arterial pressure signal was sent to an electronic chart recorder (BioPac). Heart rate was electronically derived from the arterial pressure signal. A similar PE-50 cannula was also placed in the femoral vein to allow for intravenous injection of the test peptides. Ten micrograms of the test peptides were injected intravenously in 100 μl of 0.9% NaCl in a random order and the cannula was immediately flushed with 100 μl of 0.9% NaCl. Changes in blood pressure and heart rate were calculated from the electronic record. […] Intravenous injection of [Iaa1]PACAP38 or [Iaa1,Ala22]PACAP38 also produced an increase in the heart rate from 378 bpm to 425 bpm or from 415 bpm to 440 bpm, respectively.
FIG. 10 is a graph showing the changes in arterial blood pressure caused by [Iac^1]PACAP38, [Iac^1,Ala^22]PACAP38, [Iac^1,D-Ser^2,Ala^22]PACAP38, and [Iaa^1,Ala^16,17,D-Lys^38]PACAP38. Male Sprague-Dawley rats (300-325 g) were anesthetized with 5% isoflurane for induction and then intubated. The rats were then ventilated (Hallowell EMC) with 100% O2 and 1-2% isoflurane. A PE-50 cannula was then placed in the femoral artery and connected to a pressure transducer. The arterial pressure signal was sent to an electronic chart recorder (BioPac). Heart rate was electronically derived from the arterial pressure signal. A similar PE-50 cannula was also placed in the femoral vein to allow for intravenous injection of the test peptides. Ten micrograms of the test peptides were injected intravenously in 100 μl of 0.9% NaCl in a random order and the cannula was immediately flushed with 100 μl of 0.9% NaCl. Changes in blood pressure and heart rate were calculated from the electronic record. Intravenous injection of [Iac^1,Ala^22]PACAP38 or [Iac^1,D-Ser^2,Ala^22]PACAP38 produced an increase in the heart rate from 416 bpm to 435 bpm or from 420 bpm to 441 bpm, respectively.
PACAP38 is a directly-acting arterial vasodilator and an indirectly-acting arterial vasoconstrictor. The rapid vasodilator response to intravenous administration of PACAP38 is due to stimulation of PAC1, VPAC1 and VPAC2 receptors in the blood vessels, while the slightly delayed vasoconstrictor response is mainly due to stimulation of PAC1 receptors in the adrenal medulla and the subsequent release of adrenal catecholamines. […] The critical parameter for picking a PACAP38 analog for treating a specific disease is not potency but therapeutic index.

Question: Which “change in arterial blood pressure” value does the source give for “Iaa D-Ser Asp Gly Ile Phe Thr Asp Ser Tyr Ser Arg Tyr Arg Lys Gln Met Ala Val Lys Lys Ala Leu Ala Ala Val Leu Gly Lys Arg Tyr Lys Gln Arg Val Lys Asn Lys-NH2 ({Acetyl(2-(4-imidazolyl))}-[dS]DGIFTDSYSRYRKQMAVKKALAAVLGKRYKQRVKNK-NH2; SMILES CC[C@H](C)[C@H](NC(=O)CNC(=O)[C@H](CC(=O)O)NC(=O)[C@@H](CO)NC(=O)Cc1c[nH]cn1)C(=O)N[C@@H](Cc1ccccc1)C(=O)N[C@H](C(=O)N[C@@H](CC(=O)O)C(=O)N[C@@H](CO)C(=O)N[C@@H](Cc1ccc(O)cc1)C(=O)N[C@@H](CO)C(=O)N[C@@H](CCCNC(=N)N)C(=O)N[C@@H](Cc1ccc(O)cc1)C(=O)N[C@@H](CCCNC(=N)N)C(=O)N[C@@H](CCCCN)C(=O)N[C@@H](CCC(N)=O)C(=O)N[C@@H](CCSC)C(=O)N[C@@H](C)C(=O)N[C@H](C(=O)N[C@@H](CCCCN)C(=O)N[C@@H](CCCCN)C(=O)N[C@@H](C)C(=O)N[C@@H](CC(C)C)C(=O)N[C@@H](C)C(=O)N[C@@H](C)C(=O)N[C@H](C(=O)N[C@@H](CC(C)C)C(=O)NCC(=O)N[C@@H](CCCCN)C(=O)N[C@@H](CCCNC(=N)N)C(=O)N[C@@H](Cc1ccc(O)cc1)C(=O)N[C@@H](CCCCN)C(=O)N[C@@H](CCC(N)=O)C(=O)N[C@@H](CCCNC(=N)N)C(=O)N[C@H](C(=O)N[C@@H](CCCCN)C(=O)N[C@@H](CC(N)=O)C(=O)N[C@@H](CCCCN)C(N)=O)C(C)C)C(C)C)C(C)C)[C@@H](C)O) [[Iaa^1,D-Ser^2,Ala^22]PACAP38]” here?
Answer: slight increase; also recorded: slightly increased

Question: And the “pattern of the arterial blood pressure response” value (compared with other peptides)?
Answer: expected physiological signature of a highly selective PAC1 receptor agonist

Question: And the “heart rate before intravenous injection” value?
Answer: 410 bpm

Question: What about the “heart rate after intravenous injection” value of the same substance?
Answer: 457 bpm

Question: How did the “change in the heart rate (in words)” value turn out when “Iaa Ser Asp Gly Ile Phe Thr Asp Ser Tyr Ser Arg Tyr Arg Lys Ala Ala Ala Val Lys Lys Tyr Leu Ala Ala Val Leu Gly Lys Arg Tyr Lys Gln Arg Val Lys Asn D-Lys-NH2 ({Acetyl(2-(4-imidazolyl))}-SDGIFTDSYSRYRKAAAVKKYLAAVLGKRYKQRVKN[dK]-NH2; SMILES CC[C@H](C)[C@H](NC(=O)CNC(=O)[C@H](CC(=O)O)NC(=O)[C@H](CO)NC(=O)Cc1c[nH]cn1)C(=O)N[C@@H](Cc1ccccc1)C(=O)N[C@H](C(=O)N[C@@H](CC(=O)O)C(=O)N[C@@H](CO)C(=O)N[C@@H](Cc1ccc(O)cc1)C(=O)N[C@@H](CO)C(=O)N[C@@H](CCCNC(=N)N)C(=O)N[C@@H](Cc1ccc(O)cc1)C(=O)N[C@@H](CCCNC(=N)N)C(=O)N[C@@H](CCCCN)C(=O)N[C@@H](C)C(=O)N[C@@H](C)C(=O)N[C@@H](C)C(=O)N[C@H](C(=O)N[C@@H](CCCCN)C(=O)N[C@@H](CCCCN)C(=O)N[C@@H](Cc1ccc(O)cc1)C(=O)N[C@@H](CC(C)C)C(=O)N[C@@H](C)C(=O)N[C@@H](C)C(=O)N[C@H](C(=O)N[C@@H](CC(C)C)C(=O)NCC(=O)N[C@@H](CCCCN)C(=O)N[C@@H](CCCNC(=N)N)C(=O)N[C@@H](Cc1ccc(O)cc1)C(=O)N[C@@H](CCCCN)C(=O)N[C@@H](CCC(N)=O)C(=O)N[C@@H](CCCNC(=N)N)C(=O)N[C@H](C(=O)N[C@@H](CCCCN)C(=O)N[C@@H](CC(N)=O)C(=O)N[C@H](CCCCN)C(N)=O)C(C)C)C(C)C)C(C)C)[C@@H](C)O) [[Iaa^1,Ala^16,17,D-Lys^38]PACAP38]” was run?
Answer: large decrease

Question: And the “change in arterial blood pressure” value?
Answer: large and prolonged decrease

Question: And the “change in arterial pulse pressure” value?
Answer: large and prolonged decrease

Question: And the “change in arterial blood pressure” value (D-Lys38]PACAP38)?
Answer: large decrease

Question: What about the “change in arterial pulse pressure” value (D-Lys38]PACAP38) of the same substance?
Answer: large decrease

Question: What about the “duration of the arterial blood pressure response” value (compared with [Iaa1]PACAP38) of the same substance?
Answer: much longer

Question: With “Iaa Ser Asp Gly Ile Phe Thr Asp Ser Tyr Ser Arg Tyr Arg Lys Gln Met Ala Val Lys Lys Ala Leu Ala Ala Val Leu Gly Lys Arg Tyr Lys Gln Arg Val Lys Asn Lys-NH2 ({Acetyl(2-(4-imidazolyl))}-SDGIFTDSYSRYRKQMAVKKALAAVLGKRYKQRVKNK-NH2; SMILES CC[C@H](C)[C@H](NC(=O)CNC(=O)[C@H](CC(=O)O)NC(=O)[C@H](CO)NC(=O)Cc1c[nH]cn1)C(=O)N[C@@H](Cc1ccccc1)C(=O)N[C@H](C(=O)N[C@@H](CC(=O)O)C(=O)N[C@@H](CO)C(=O)N[C@@H](Cc1ccc(O)cc1)C(=O)N[C@@H](CO)C(=O)N[C@@H](CCCNC(=N)N)C(=O)N[C@@H](Cc1ccc(O)cc1)C(=O)N[C@@H](CCCNC(=N)N)C(=O)N[C@@H](CCCCN)C(=O)N[C@@H](CCC(N)=O)C(=O)N[C@@H](CCSC)C(=O)N[C@@H](C)C(=O)N[C@H](C(=O)N[C@@H](CCCCN)C(=O)N[C@@H](CCCCN)C(=O)N[C@@H](C)C(=O)N[C@@H](CC(C)C)C(=O)N[C@@H](C)C(=O)N[C@@H](C)C(=O)N[C@H](C(=O)N[C@@H](CC(C)C)C(=O)NCC(=O)N[C@@H](CCCCN)C(=O)N[C@@H](CCCNC(=N)N)C(=O)N[C@@H](Cc1ccc(O)cc1)C(=O)N[C@@H](CCCCN)C(=O)N[C@@H](CCC(N)=O)C(=O)N[C@@H](CCCNC(=N)N)C(=O)N[C@H](C(=O)N[C@@H](CCCCN)C(=O)N[C@@H](CC(N)=O)C(=O)N[C@@H](CCCCN)C(N)=O)C(C)C)C(C)C)C(C)C)[C@@H](C)O) [[Iaa^1,Ala^22]PACAP38]” as the substance, how does the “change in arterial blood pressure” value read?
Answer: large decrease

Question: What about the “heart rate before intravenous injection” value of the same substance?
Answer: 415 bpm

Question: What about the “heart rate after intravenous injection” value of the same substance?
Answer: 440 bpm

Question: With “Iac D-Ser Asp Gly Ile Phe Thr Asp Ser Tyr Ser Arg Tyr Arg Lys Gln Met Ala Val Lys Lys Ala Leu Ala Ala Val Leu Gly Lys Arg Tyr Lys Gln Arg Val Lys Asn Lys-NH2 (Iac-[dS]DGIFTDSYSRYRKQMAVKKALAAVLGKRYKQRVKNK-NH2) [[Iac^1,D-Ser^2,Ala^22]PACAP38]” as the substance, how does the “heart rate before intravenous injection” value read?
Answer: 420 bpm

Question: And the “heart rate after intravenous injection” value?
Answer: 441 bpm

Question: Which results are given for “Iac Ser Asp Gly Ile Phe Thr Asp Ser Tyr Ser Arg Tyr Arg Lys Gln Met Ala Val Lys Lys Ala Leu Ala Ala Val Leu Gly Lys Arg Tyr Lys Gln Arg Val Lys Asn Lys-NH2 (Iac-SDGIFTDSYSRYRKQMAVKKALAAVLGKRYKQRVKNK-NH2) [[Iac^1,Ala^22]PACAP38]”?
Answer: heart rate before intravenous injection: 416 bpm; heart rate after intravenous injection: 435 bpm
